From US20200181132A1, “QUINOXALINE AND PYRIDOPYRAZINE DERIVATIVES AS PI3K-BETA INHIBITORS” (JANSSEN PHARMACEUTICA NV, priority 2017, published 2020)
Like-named read-outs stand apart in the source and are kept apart here.

What was measured:
PIK3Cα_h = target: T1, PIK3Cα_h (Homo sapiens, UniProt P42336); experiment: Enzyme binding assay (KINOMEscan), PIK3Cα; settings: DiscoveRx
T1 construct: purchased DiscoveRx Corporation
Procedure: (§1) Enzyme Binding Assays (KINOMEscan®)
(§2) Kinase enzyme binding affinities of compounds disclosed herein were determined using the KINOMEscan technology performed by DiscoveRx Corporation, San Diego, Calif., USA (www.kinomescan.com). Table A reports the obtained Kd values (nM), with the Kd being the inhibitor binding constant: […]

[1] = tested on: phosphorylation of Akt at Thr308 in PC-3 cells; experiment: Cellular assay: phospho-Akt (Thr308) MSD ELISA in PC-3 cells; assay type: cell-based; settings: 60 min incubation with compound, read-out: IC50 pAkt_Thr308
Procedure: (§3) Cellular activity of PI3Kβ inhibitors was determined by quantifying the phosphorylation of Akt in PC-3 cells. Akt phosphorylated at Ser473 and Thr308 were measured using an enzyme-linked immunosorbent assay (ELISA; Meso Scale Discovery (MSD), Gaithersburg, Md.) and specific primary antibodies from MSD.
(§4) On day 1, PC3 cells (ATCC # […]) were seeded into PerkinElmer MW96 plates at 25.000 cells per well, in 75 μl complete culture medium (DMEM high glucose, AQmedia™, D0819, Sigma-Aldrich) containing 10% heat inactivated FCS and incubated at 37° C., 5% CO2 during 24 hours. On day 2, compound or DMSO (0.3%) was added and cells were further incubated for 60 min at 37° C., 5% CO2 in a total volume of 100 μl of medium.
(§5) The phosphoprotein assay was executed according to vendor instructions in the Phospho-Akt (Ser473) Assay Whole Cell Lysate Kit (MSD # K15100D-3) and the Phospho-Akt (Thr308) Assay Whole Cell Lysate Kit (MSD # K151DYD-3) using the lysis, blocking and wash buffer provided.
(§6) Briefly, at the end of the cell treatment period, media were removed by aspiration and adherent cells were lysed in 50 μl ice-cold lysis buffer. MSD plates are supplied pre-coated with capture antibodies for Phospho-Akt (Ser473 and Thr308). After blocking, lysates from tissue culture plates were added and plates were washed. Then, a solution containing the detection antibody (anti-total Akt conjugated with an electrochemiluminescent compound-MSD Sulfo-tag label) was added. The signals were detected using an MSD SECTOR Imager 6000 and are proportional to the phospho-Akt titres.
(§7) Data were processed. The percentage of inhibition was plotted against the log concentration of test compounds, and the sigmoidal log concentration-effect curve of best fit was calculated by nonlinear regression analysis. From these concentration-response curves, the IC50 values were calculated. Five concentrations were used for curve fitting.

PIK3Cβ_h = target: T2, PIK3Cβ_h (Homo sapiens, UniProt P42338); experiment: Enzyme binding assay (KINOMEscan), PIK3Cβ; settings: DiscoveRx
T2 construct: purchased DiscoveRx Corporation
T2 sequence (P42338 whole entry): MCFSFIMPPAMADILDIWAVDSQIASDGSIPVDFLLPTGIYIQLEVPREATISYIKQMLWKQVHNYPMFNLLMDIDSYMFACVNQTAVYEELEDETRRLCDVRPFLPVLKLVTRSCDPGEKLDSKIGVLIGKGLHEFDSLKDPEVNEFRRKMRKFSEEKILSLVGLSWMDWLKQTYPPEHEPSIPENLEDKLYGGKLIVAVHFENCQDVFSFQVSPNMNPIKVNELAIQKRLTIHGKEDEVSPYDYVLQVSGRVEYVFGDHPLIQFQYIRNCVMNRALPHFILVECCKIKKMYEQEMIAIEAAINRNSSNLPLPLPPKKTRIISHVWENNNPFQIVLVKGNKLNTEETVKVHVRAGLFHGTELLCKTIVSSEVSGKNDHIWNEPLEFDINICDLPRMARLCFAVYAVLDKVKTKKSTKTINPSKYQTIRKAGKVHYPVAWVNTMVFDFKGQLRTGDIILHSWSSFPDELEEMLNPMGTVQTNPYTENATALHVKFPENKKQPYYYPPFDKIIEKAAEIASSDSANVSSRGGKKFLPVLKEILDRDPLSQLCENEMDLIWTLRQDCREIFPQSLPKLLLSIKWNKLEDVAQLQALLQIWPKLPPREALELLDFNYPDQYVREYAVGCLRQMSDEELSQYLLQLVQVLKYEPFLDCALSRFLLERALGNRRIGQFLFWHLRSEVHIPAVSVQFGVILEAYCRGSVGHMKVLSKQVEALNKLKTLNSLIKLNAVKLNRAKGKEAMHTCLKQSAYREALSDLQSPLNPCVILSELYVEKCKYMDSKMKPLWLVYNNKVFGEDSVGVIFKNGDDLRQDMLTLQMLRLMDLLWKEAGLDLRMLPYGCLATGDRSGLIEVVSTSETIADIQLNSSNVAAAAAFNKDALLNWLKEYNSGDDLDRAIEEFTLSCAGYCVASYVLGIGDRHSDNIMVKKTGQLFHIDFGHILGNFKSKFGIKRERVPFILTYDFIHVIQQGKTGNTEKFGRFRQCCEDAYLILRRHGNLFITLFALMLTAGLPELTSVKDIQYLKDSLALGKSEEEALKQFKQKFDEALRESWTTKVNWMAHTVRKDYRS
Procedure: as §1, §2

MTOR_h = target: T3, MTOR_h (Homo sapiens, UniProt P42345); experiment: Enzyme binding assay (KINOMEscan), MTOR; settings: DiscoveRx
T3 construct: purchased DiscoveRx Corporation
Procedure: as §1, §2

[2] = tested on: phosphorylation of Akt at Ser473 in PC-3 cells; experiment: Cellular assay: phospho-Akt (Ser473) MSD ELISA in PC-3 cells; assay type: cell-based; settings: 60 min incubation with compound, read-out: IC50 pAkt_S473
Procedure: as §3, §4, §5, §6, §7

PIK3Cγ_h = target: T4, PIK3Cγ_h (Homo sapiens, UniProt P48736); experiment: Enzyme binding assay (KINOMEscan), PIK3Cγ; settings: DiscoveRx
T4 construct: purchased DiscoveRx Corporation
T4 sequence (P48736 whole entry): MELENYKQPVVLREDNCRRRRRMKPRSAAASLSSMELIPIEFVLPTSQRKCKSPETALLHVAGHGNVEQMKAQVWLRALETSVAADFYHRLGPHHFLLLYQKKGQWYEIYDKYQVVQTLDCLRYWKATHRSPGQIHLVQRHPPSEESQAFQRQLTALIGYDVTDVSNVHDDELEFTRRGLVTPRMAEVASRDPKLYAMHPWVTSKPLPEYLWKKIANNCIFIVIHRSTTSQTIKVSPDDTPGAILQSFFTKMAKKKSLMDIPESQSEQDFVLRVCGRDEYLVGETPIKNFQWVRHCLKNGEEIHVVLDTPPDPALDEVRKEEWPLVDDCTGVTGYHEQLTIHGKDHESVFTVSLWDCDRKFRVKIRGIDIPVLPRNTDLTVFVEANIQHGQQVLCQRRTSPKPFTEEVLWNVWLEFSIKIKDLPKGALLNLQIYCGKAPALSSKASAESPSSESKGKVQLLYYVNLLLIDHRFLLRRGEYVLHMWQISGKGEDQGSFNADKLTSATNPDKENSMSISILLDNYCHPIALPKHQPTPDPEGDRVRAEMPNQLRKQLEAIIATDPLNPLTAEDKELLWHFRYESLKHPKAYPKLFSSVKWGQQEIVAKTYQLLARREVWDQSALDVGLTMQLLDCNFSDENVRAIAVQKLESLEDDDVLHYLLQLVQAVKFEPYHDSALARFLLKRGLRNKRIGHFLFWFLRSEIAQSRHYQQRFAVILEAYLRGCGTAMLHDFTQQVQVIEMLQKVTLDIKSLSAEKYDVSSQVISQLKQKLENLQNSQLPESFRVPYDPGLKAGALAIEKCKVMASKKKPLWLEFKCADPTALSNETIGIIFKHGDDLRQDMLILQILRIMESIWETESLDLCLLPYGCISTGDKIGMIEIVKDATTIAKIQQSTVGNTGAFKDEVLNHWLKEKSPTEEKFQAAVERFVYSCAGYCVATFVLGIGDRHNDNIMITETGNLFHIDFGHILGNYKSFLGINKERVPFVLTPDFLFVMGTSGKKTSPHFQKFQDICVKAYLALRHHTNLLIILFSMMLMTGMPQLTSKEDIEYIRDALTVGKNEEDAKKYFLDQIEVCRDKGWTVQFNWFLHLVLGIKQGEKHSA
Procedure: as §1, §2

PIK3Cδ_h = target: T5, PIK3Cδ_h (Homo sapiens, UniProt O00329); experiment: Enzyme binding assay (KINOMEscan), PIK3Cδ; settings: DiscoveRx
T5 construct: purchased DiscoveRx Corporation
T5 sequence (O00329 1-1044): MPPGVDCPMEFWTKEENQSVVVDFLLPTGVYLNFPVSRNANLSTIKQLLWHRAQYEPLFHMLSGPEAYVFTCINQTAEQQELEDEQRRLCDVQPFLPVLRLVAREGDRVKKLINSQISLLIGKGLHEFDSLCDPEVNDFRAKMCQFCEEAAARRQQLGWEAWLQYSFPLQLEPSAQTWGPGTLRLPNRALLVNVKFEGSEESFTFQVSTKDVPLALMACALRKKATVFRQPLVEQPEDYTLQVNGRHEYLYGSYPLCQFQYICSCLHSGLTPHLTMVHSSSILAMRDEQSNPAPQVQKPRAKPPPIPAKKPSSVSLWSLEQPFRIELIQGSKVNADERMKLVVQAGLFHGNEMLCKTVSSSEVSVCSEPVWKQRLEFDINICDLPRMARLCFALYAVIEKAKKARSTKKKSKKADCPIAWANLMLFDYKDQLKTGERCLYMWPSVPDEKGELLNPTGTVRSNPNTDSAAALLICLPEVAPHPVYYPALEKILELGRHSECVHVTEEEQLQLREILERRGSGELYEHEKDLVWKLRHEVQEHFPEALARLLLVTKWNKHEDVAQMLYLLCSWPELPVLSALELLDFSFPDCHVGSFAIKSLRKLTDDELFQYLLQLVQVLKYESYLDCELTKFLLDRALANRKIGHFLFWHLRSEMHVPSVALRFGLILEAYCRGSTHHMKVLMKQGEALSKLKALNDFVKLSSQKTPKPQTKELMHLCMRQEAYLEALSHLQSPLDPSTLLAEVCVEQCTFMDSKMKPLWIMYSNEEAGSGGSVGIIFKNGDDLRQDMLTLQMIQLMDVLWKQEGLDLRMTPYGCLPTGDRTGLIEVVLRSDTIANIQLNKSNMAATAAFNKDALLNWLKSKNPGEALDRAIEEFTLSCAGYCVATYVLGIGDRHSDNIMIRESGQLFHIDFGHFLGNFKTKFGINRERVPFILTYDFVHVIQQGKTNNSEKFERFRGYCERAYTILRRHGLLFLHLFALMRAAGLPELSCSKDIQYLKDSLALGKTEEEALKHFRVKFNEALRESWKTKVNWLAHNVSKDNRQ
Procedure: as §1, §2

T1 sequence (P42336 whole entry): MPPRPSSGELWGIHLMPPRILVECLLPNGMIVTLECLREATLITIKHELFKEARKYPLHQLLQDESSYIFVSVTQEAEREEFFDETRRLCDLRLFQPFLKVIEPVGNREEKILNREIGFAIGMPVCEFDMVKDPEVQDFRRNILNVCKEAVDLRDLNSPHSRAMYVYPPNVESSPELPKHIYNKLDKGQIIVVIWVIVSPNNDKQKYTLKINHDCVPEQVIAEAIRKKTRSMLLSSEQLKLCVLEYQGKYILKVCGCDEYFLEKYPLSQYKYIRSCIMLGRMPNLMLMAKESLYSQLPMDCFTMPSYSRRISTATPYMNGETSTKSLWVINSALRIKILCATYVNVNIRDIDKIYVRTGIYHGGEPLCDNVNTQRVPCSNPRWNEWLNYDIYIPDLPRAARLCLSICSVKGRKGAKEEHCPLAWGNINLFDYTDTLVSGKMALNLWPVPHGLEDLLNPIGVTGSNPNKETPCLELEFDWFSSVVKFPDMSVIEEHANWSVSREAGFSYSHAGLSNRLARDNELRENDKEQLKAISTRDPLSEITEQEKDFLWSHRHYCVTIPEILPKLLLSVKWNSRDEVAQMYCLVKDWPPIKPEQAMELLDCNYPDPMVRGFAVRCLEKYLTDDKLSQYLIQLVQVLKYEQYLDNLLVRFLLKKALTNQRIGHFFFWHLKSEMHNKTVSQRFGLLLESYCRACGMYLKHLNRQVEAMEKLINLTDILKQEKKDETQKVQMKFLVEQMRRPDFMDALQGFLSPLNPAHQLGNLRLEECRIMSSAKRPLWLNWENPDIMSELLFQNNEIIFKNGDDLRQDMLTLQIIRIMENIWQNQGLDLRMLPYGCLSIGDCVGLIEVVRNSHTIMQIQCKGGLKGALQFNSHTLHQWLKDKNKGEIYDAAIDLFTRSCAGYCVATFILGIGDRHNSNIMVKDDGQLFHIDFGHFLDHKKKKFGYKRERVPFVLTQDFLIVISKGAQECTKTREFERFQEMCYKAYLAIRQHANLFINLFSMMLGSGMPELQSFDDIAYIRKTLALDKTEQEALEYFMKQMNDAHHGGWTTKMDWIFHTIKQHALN

| Kd (PIK3Cα_h) [µM] | IC50 ([1]; Homo sapiens, PC-3, 1 h) [nM] | Kd (PIK3Cβ_h) [nM] | melting point [°C] | Kd (MTOR_h) [µM] | IC50 ([2]; Homo sapiens, PC-3, 1 h) [nM] | Kd (PIK3Cγ_h) [µM] | Kd (PIK3Cδ_h) [nM] | IC50 [1] [nM] | IC50 [2] [nM] | Structure (SMILES) |
| --- | --- | --- | --- | --- | --- | --- | --- | --- | --- | --- |
| 1.7 | 4 | 0.1 | 206 | > 30.2 | 5 | 3.39 | 295 | – | – | CN(C)CCNC(=O)c1cc(C2CCCN2c2cncc(F)c2)c2nc(N3CCOCC3)cnc2c1 (stereo not drawn) [Compound 36] |
| 2.82 | – | 9 | 160 | > 30.2 | > 513 | 16.6 | 1480 | ~72 | – | CC(Nc1cncc(F)c1)c1cc(C(=O)N2CC3(C2)CS(=O)(=O)C3)cc2ncc(N3CCOCC3)nc12 (single isomer, unassigned) [Compound 31] |
| 15.5 | – | 8 | 190 | 12 | – | 4.79 | 1440 | > 513 | > 513 | CC(Nc1cncc(F)c1)c1cc(C(=O)NCCN(C)C)cc2ncc(N3CCOCC3)nc12 (single isomer, unassigned) [Compound 35] |
| > 30.2 | > 513 | 2040 | 186 | > 30.2 | > 513 | > 30.2 | 25100 | – | – | Cc1cc(N2CCCC2c2cc(C(=O)N(C)C)cc3ncc(N4CCOCC4)nc23)nc(C)n1 (stereo not drawn) [Compound 3] |
| 0.447 | 40 | 3 | 191 | 11.5 | ~2 | 1 | 166 | – | – | O=C(NCCO)c1cc(C2CCCN2c2cncc(F)c2)c2nc(N3CCOCC3)cnc2c1 (stereo not drawn) [Compound 43] |
| 5.37 | 417 | 22 | 100 | > 30.2 | > 513 | 26.9 | 832 | – | – | Cc1cc(C)nc(N2CCCC2c2cc(C(=O)N(C)C)cc3ncc(N4CCOCC4)nc23)n1 (stereo not drawn) [Compound 5] |
| 28.8 | > 513 | 1550 | 110 | > 30.2 | > 513 | > 30.2 | 22400 | – | – | Cc1nccc(N2CCCC2c2cc(C(=O)N(C)C)cc3ncc(N4CCOCC4)nc23)n1 (stereo not drawn) [Compound 4] |
| > 30.2 | > 513 | 162 | 138 | > 30.2 | > 513 | 20.9 | 5890 | – | – | Cc1cc(N2CCCC2c2cc(C(=O)N(C)C)cc3ncc(N4CCOCC4)nc23)cc(C)n1 (stereo not drawn) [Compound 2] |
| 2.19 | – | 0.4 | 194 | > 30.2 | – | 3.89 | 166 | 7 | 14 | CC(Nc1cncc(F)c1)c1cc(C(=O)NCCN(C)C)cc2ncc(N3CCOCC3)nc12 (single isomer, unassigned) [Compound 34] |
